Common to all, as to assay: In vivo activity, experimentally infected mice (ED50)
One test relates to Staphylococcus aureus. The following applies: Staphylococcus aureus infection; doses administered subcutaneously to mice 1 and 4 hours postinfection.
Another test concerns Streptococcus pyogenes. The following applies: Streptococcus pyogenes infection; doses administered subcutaneously to mice 1 and 4 hours postinfection.
A further test relates to Streptococcus pneumoniae. The following applies: Streptococcus pneumoniae infection; doses administered subcutaneously to mice 1 and 4 hours postinfection.

Structures are written as SMILES.

Turning to `CCCCCCCCN(C)[C@H](CC(C)C)C(=O)N[C@H]1C(=O)N[C@@H](CC(N)=O)C(=O)N[C@H]2C(=O)N[C@H]3C(=O)N[C@H](C(=O)N[C@H](C(=O)O)c4cc(O)cc(O)c4-c4cc3ccc4O)[C@H](O[C@H]3C[C@](C)(N)[C@@H](O)[C@H](C)O3)c3ccc(cc3)Oc3cc2cc(c3O[C@@H]2O[C@H](CO)[C@@H](O)[C@H](O)[C@H]2O[C@H]2C[C@](C)(N)[C@@H](O)[C@H](C)O2)Oc2ccc(cc2Cl)[C@H]1O` [Compound 2], the ED50 was > 5.0 mg/kg/2 in the test with Staphylococcus aureus, 0.79 mg/kg/2 with Streptococcus pyogenes and 1.25 mg/kg/2 with Streptococcus pneumoniae.
For the compound `CCCCCN[C@@]1(C)C[C@H](O[C@H]2[C@H](Oc3c4cc5cc3Oc3ccc(cc3Cl)[C@@H](O)[C@@H](NC(=O)[C@@H](CC(C)C)NC)C(=O)N[C@@H](CC(N)=O)C(=O)N[C@H]5C(=O)N[C@H]3C(=O)N[C@H](C(=O)N[C@H](C(=O)O)c5cc(O)cc(O)c5-c5cc3ccc5O)[C@H](O[C@H]3C[C@](C)(N)[C@@H](O)[C@H](C)O3)c3ccc(cc3)O4)O[C@H](CO)[C@@H](O)[C@@H]2O)O[C@@H](C)[C@@H]1O` [Compound 5], the ED50 in the test with Staphylococcus aureus is reported as 0.92 mg/kg/2; in the test on Streptococcus pyogenes, 0.17 mg/kg/2; in the test on Streptococcus pneumoniae, 0.1 mg/kg/2.
In the case of `CCCCCN[C@@]1(C)C[C@H](O[C@H]2[C@H](Oc3c4cc5cc3Oc3ccc(cc3Cl)[C@@H](O)[C@@H](NC(=O)[C@@H](CC(C)C)N(C)CCCCC)C(=O)N[C@@H](CC(N)=O)C(=O)N[C@H]5C(=O)N[C@H]3C(=O)N[C@H](C(=O)N[C@H](C(=O)O)c5cc(O)cc(O)c5-c5cc3ccc5O)[C@H](O[C@H]3C[C@](C)(NCCCCC)[C@@H](O)[C@H](C)O3)c3ccc(cc3)O4)O[C@H](CO)[C@@H](O)[C@@H]2O)O[C@@H](C)[C@@H]1O` [Compound 8], the results for the ED50 in the test on Staphylococcus aureus, in the test with Streptococcus pyogenes and in the test on Streptococcus pneumoniae were > 4.0 mg/kg/2, 2.69 mg/kg/2 and > 4.0 mg/kg/2, respectively.
In the case of `CCCCCCCCCCN[C@@]1(C)C[C@H](O[C@H]2[C@H](Oc3c4cc5cc3Oc3ccc(cc3Cl)[C@@H](O)[C@@H](NC(=O)[C@@H](CC(C)C)NC)C(=O)N[C@@H](CC(N)=O)C(=O)N[C@H]5C(=O)N[C@H]3C(=O)N[C@H](C(=O)N[C@H](C(=O)O)c5cc(O)cc(O)c5-c5cc3ccc5O)[C@H](O[C@H]3C[C@](C)(N)[C@@H](O)[C@H](C)O3)c3ccc(cc3)O4)O[C@H](CO)[C@@H](O)[C@@H]2O)O[C@@H](C)[C@@H]1O` [Compound 9], in the test with Streptococcus pyogenes, the ED50 came out at 0.68 mg/kg/2.
Consider `CN[C@H](CC(C)C)C(=O)N[C@H]1C(=O)N[C@@H](CC(N)=O)C(=O)N[C@H]2C(=O)N[C@H]3C(=O)N[C@H](C(=O)N[C@H](C(=O)O)c4cc(O)cc(O)c4-c4cc3ccc4O)[C@H](O[C@H]3C[C@](C)(N)[C@@H](O)[C@H](C)O3)c3ccc(cc3)Oc3cc2cc(c3O[C@@H]2O[C@H](CO)[C@@H](O)[C@H](O)[C@H]2O[C@H]2C[C@](C)(NCc3ccc(Cl)cc3)[C@@H](O)[C@H](C)O2)Oc2ccc(cc2Cl)[C@H]1O` [Compound 20], for which the values for the ED50 in the test with Staphylococcus aureus, in the test on Streptococcus pyogenes and in the test with Streptococcus pneumoniae were > 2.0 mg/kg/2, 0.15 mg/kg/2 and 0.23 mg/kg/2, respectively.
Take `CC(C)CC(C(=O)NC1C(=O)NC(CC(N)=O)C(=O)NC2C(=O)NC3C(=O)NC(C(=O)NC(C(=O)O)c4cc(O)cc(O)c4-c4cc3ccc4O)C(OC3CC(C)(N)C(O)C(C)O3)c3ccc(c(Cl)c3)Oc3cc2cc(c3OC2OC(CO)C(O)C(O)C2OC2CC(C)(N)C(O)C(C)O2)Oc2ccc(cc2Cl)C1O)N(C)Cc1ccccc1` (stereo not shown) [Compound 52]: the ED50 with Streptococcus pyogenes was determined as 0.5 mg/kg/2; with Streptococcus pneumoniae, 0.75 mg/kg/2.
Turning to `CCN(CC)c1ccc(CNC2(C)CC(OC3c4ccc(c(Cl)c4)Oc4cc5cc(c4OC4OC(CO)C(O)C(O)C4OC4CC(C)(NCc6ccc(N(CC)CC)cc6)C(O)C(C)O4)Oc4ccc(cc4Cl)C(O)C(NC(=O)C(CC(C)C)NC)C(=O)NC(CC(N)=O)C(=O)NC5C(=O)NC4C(=O)NC3C(=O)NC(C(=O)O)c3cc(O)cc(O)c3-c3cc4ccc3O)OC(C)C2O)cc1` (stereo not shown) [Compound 57], the ED50 with Streptococcus pyogenes is listed as < 0.62 mg/kg/2.

For the origin of these results see patent publication US5591714A, “Derivatives of A82846” (priority 1994, dated 1997).
